Laboratory results taken from patent publication US20070142401A1, “Indolyl-pyrroledione derivatives for the treatment of neurological and vascular disorders related to beta-amyloid generation and/or aggregation” (NOVARTIS AG, priority 2003, published 2007).

Experiments:
PKC alpha = PKC alpha (Homo sapiens, UniProt P17252); test: cell-free enzyme assay PKC alpha; assay type: biochemical
PKC beta = PKC beta (Homo sapiens, UniProt P05771); test: cell-free enzyme assay PKC beta; assay type: biochemical
PKC gamma = PKC gamma (Homo sapiens, UniProt P05129); test: cell-free enzyme assay PKC gamma; assay type: biochemical
PKC epsilon = target: T1, PKC epsilon (Homo sapiens, UniProt Q02156); test: cell-free enzyme assay PKC epsilon; assay type: biochemical
T1 sequence (Q02156 1-737): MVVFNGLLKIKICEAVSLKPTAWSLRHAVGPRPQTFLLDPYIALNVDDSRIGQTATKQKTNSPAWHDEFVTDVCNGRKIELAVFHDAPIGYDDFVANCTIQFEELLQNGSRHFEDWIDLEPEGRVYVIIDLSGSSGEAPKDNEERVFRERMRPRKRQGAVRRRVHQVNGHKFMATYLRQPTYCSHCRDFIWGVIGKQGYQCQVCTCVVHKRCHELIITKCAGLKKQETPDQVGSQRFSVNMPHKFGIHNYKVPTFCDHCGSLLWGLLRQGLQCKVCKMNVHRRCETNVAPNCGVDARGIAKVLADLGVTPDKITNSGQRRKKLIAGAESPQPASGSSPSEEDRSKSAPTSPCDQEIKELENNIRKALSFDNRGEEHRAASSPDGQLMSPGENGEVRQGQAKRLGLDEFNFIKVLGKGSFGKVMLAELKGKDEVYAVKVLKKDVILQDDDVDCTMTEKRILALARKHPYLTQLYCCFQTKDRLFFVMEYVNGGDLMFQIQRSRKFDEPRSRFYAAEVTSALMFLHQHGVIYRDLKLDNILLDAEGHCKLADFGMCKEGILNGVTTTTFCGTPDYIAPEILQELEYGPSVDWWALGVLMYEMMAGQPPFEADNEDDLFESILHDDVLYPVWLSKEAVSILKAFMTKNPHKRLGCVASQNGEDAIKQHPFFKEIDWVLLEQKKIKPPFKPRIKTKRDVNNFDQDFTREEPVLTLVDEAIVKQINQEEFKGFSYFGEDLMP

PKC theta = PKC theta (Homo sapiens, UniProt Q04759); test: cell-free enzyme assay PKC theta; assay type: biochemical
CDK-1 = CDK-1 (Homo sapiens, UniProt P06493); test: cell-free enzyme assay CDK-1; assay type: biochemical
KDR = KDR (Homo sapiens, UniProt P35968); test: cell-free enzyme assay KDR; assay type: biochemical
Flt-1 = Flt-1 (Homo sapiens, UniProt P17948); test: cell-free enzyme assay Flt-1; assay type: biochemical
Flt-2 = Flt-2 (Homo sapiens, UniProt P11362); test: cell-free enzyme assay Flt-2; assay type: biochemical
Flt-3 = target: T2, Flt-3 (Homo sapiens, UniProt P36888); test: cell-free enzyme assay Flt-3; assay type: biochemical
T2 sequence (P36888 27-993): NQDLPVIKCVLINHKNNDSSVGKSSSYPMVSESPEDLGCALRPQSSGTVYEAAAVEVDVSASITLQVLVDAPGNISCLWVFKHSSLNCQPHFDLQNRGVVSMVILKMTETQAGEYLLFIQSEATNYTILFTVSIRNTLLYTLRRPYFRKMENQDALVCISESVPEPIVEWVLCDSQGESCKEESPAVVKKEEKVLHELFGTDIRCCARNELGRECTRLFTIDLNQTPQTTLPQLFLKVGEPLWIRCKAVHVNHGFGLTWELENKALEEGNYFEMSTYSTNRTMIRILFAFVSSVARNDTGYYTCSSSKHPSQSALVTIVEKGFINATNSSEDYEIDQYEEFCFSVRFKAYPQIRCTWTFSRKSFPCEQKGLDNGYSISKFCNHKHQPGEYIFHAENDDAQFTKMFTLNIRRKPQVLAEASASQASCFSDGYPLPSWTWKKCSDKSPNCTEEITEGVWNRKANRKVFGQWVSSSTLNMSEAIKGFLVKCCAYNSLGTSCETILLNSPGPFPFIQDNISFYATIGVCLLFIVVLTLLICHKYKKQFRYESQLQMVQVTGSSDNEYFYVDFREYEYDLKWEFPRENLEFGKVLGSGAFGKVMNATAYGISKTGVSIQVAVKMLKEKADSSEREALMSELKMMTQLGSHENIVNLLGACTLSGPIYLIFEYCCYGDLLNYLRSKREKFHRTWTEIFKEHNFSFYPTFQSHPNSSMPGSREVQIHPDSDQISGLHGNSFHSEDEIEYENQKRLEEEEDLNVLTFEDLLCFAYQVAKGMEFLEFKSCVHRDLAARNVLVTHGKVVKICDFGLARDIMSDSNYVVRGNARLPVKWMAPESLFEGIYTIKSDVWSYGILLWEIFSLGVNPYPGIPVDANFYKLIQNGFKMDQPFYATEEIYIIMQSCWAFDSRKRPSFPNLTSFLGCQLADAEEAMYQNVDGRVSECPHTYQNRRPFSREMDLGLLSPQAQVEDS

Flt-4 = Flt-4 (Homo sapiens, UniProt P35916); test: cell-free enzyme assay Flt-4; assay type: biochemical
[1] = test system: Aβ secretion in HEK/APPswe cells; test: Aβ secretion in HEK/APPswe cell culture medium (sandwich ELISA); assay type: cell-based; conditions: HEK/APPswe cell cultures, 24 hours after compound addition
Protocol: HEK/APPswe cells are plated in microtiter plates precoated with 10 μg/ml poly-D-lysine at 12′000 cells/well in 100 μl/well DMEM medium supplemented with 10% FCS, 0.25 mg/ml G418 sulfate, 1% penicillin streptomycin. The following day, supernatant is replaced with 90 μl/well of fresh medium and 10 μl/well of compound diluted in culture medium are added. Two types of control wells are used: cell culture medium without cells plus 10 μl/well of all compound dilutions (background signals) and cell culture medium from untreated cells (positive control). 24 hours later after compound addition, conditioned medium is collected and Aβ levels determined by a specific sandwich ELISA.
For the sandwich ELISA, the maxisorp microtiterplates are coated overnight at 4° C. with 100 μl/well of the monoclonal antibody 25H 10 diluted 1:1000 in PB for Aβ40 detection or monoclonal antibody B10E7 diluted 1:2750 for detection of Aβ42. […] After 1 hour incubation at room temperature wells are washed as described above and alkaline phosphatase activity is determined by adding 100 μl/well of diethanolamine buffer, pH 9.8 (100 mM diethanolamine, 1 mM MgCl2, pH adjusted to 9.8 with 2 M HCl) containing the chemiluminescent CSPD substrate (25 mM stock solution diluted 1:416) and the enhancer Emerald II (diluted 1:10). […] Samples are measured in triplicate. […]

HEK/APPswe cells = test: MTS assay (cytotoxicity); assay type: cell-based; conditions: at concentrations below 1 microM
Protocol: To determine cytotoxicity, cells are tested by the MTS colorimetric kit performed essentially according to the manufacturer's specifications (Promega, #G5430X). After collecting the conditioned medium for the sandwich ELISA, the rest of the conditioned medium is removed completely and replaced with 100 μl/well culture medium containing one fifth of MTS solution prepared as recommended in the kit. After 3 hours incubation at 37° C., absorbance is read at an OD of 490 nm with a reference wavelength set to 630 nm. Values are given as % metabolic rate (n=6). The 0% value is calculated from wells which had no cells, 100% from wells with an untreated cell layer

Flt-4, sequence (P35916 25-1363, species assumed): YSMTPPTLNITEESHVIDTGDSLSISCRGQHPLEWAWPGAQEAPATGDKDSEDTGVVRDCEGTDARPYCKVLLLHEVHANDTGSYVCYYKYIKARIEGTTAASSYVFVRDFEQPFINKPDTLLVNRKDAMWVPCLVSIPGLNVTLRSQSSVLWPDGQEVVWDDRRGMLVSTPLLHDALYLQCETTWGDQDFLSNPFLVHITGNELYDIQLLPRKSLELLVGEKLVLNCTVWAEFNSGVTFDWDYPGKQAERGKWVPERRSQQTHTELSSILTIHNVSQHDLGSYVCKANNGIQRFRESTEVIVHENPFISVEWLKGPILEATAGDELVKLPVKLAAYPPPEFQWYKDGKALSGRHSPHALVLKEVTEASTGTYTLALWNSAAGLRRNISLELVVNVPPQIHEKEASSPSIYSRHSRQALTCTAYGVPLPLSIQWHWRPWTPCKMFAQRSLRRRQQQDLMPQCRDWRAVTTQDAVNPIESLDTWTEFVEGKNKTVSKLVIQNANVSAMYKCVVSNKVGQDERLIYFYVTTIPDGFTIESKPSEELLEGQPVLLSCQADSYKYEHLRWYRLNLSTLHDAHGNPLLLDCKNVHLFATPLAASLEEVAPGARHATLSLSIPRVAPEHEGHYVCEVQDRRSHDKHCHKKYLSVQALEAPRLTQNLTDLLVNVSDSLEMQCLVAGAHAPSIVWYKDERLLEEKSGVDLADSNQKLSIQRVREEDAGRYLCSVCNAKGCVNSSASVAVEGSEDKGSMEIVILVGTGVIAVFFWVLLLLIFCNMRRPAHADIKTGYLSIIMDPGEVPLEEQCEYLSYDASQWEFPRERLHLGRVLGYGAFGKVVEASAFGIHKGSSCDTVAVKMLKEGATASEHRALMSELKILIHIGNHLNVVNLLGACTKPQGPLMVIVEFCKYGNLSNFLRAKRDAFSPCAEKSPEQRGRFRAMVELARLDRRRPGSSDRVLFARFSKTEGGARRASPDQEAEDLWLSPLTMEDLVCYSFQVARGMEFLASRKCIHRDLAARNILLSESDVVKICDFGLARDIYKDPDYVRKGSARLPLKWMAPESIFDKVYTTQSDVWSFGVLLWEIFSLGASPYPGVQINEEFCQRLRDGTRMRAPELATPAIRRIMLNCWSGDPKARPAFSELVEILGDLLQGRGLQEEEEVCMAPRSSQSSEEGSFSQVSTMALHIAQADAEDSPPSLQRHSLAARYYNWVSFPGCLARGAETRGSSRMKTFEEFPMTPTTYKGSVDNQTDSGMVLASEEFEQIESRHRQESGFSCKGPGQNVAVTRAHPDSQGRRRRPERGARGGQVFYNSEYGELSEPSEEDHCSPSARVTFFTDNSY
Flt-2, sequence (P11362 22-822, species assumed): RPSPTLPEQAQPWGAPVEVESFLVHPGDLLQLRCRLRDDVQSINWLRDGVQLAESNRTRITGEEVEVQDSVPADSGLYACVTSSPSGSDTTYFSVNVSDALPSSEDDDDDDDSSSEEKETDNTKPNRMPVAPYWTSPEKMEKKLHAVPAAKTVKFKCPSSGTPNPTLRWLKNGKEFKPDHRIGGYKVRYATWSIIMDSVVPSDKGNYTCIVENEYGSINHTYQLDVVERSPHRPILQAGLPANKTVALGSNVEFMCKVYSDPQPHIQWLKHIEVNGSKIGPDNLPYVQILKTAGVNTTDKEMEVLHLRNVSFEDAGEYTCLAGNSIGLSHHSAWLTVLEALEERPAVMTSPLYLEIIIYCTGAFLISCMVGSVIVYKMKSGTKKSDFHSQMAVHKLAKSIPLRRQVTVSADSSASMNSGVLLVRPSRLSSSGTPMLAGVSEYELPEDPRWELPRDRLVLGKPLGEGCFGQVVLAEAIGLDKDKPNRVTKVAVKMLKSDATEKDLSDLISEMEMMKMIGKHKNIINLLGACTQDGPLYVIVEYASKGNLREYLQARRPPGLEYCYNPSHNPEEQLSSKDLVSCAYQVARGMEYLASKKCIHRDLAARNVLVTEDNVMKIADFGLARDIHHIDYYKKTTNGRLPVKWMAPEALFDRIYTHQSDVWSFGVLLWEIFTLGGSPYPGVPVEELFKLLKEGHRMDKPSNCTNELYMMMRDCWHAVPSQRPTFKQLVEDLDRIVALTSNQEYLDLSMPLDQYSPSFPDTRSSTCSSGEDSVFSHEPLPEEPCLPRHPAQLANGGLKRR
Flt-1, sequence (P17948 27-1338, species assumed): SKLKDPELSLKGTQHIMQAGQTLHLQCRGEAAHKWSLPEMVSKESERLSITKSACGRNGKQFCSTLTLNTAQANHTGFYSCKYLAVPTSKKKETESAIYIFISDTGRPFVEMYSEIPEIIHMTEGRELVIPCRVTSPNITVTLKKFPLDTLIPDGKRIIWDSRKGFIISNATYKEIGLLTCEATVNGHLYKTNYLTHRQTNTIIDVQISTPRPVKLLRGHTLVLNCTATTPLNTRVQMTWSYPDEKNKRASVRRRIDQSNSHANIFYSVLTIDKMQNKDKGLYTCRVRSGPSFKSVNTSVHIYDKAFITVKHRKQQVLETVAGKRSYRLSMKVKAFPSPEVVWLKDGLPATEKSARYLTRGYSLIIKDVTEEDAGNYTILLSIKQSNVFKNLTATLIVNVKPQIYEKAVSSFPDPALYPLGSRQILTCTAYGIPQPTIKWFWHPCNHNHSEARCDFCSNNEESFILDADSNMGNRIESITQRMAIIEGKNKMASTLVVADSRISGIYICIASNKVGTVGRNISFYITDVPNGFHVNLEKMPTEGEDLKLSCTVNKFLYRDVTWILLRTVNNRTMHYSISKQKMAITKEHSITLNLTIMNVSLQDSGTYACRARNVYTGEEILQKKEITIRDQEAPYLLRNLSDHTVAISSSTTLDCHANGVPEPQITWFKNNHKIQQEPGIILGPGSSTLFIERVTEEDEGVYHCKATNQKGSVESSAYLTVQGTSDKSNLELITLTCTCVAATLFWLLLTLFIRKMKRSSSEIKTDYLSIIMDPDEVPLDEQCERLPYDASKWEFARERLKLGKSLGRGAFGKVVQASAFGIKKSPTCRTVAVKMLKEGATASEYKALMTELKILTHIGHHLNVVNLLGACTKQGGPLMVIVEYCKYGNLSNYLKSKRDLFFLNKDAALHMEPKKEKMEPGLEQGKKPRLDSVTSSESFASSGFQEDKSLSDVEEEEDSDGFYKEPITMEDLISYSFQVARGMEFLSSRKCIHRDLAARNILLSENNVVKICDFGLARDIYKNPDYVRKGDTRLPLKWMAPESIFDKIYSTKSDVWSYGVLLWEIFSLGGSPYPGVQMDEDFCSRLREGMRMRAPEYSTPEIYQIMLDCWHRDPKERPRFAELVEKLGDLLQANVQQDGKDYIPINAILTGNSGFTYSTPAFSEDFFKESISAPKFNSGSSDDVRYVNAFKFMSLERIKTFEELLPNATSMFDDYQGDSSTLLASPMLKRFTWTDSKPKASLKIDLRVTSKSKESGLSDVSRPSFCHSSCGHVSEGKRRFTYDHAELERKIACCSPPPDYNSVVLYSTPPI

- activity in cell-free enzyme assay, PKC alpha (PKC alpha): 21 nM
- activity in cell-free enzyme assay, PKC beta (PKC beta): 30 nM
- activity in cell-free enzyme assay, PKC gamma (PKC gamma): <500 nM
- activity in cell-free enzyme assay, PKC epsilon (PKC epsilon): 514 nM
- activity in cell-free enzyme assay, PKC theta (PKC theta): 186 nM
- activity in cell-free enzyme assay, CDK-1 (CDK-1): <10 µM
- activity in cell-free enzyme assay, KDR (KDR): <10 µM
- activity in cell-free enzyme assay, Flt-1 (Flt-1): <10 µM
- activity in cell-free enzyme assay, Flt-2 (Flt-2): <10 µM
- activity in cell-free enzyme assay, Flt-3 (Flt-3): <10 µM
- activity in cell-free enzyme assay, Flt-4 (Flt-4): <10 µM
SMILES: CN1CCN(c2cc(C3=C(c4c[nH]c5ccccc45)C(=O)NC3=O)c(Cl)c(C(F)(F)F)c2)CC1 [Example 2, 3-[2-Chloro-5-(4-methyl-piperazin-1-yl)-3-trifluoromethyl-phenyl]-4-(1H-indol-3-yl)-pyrrole-2,5-dione]
- concentration giving a clear reduction of Aβ secretion in the medium [1]: below 1 microM
- effect on cellular viability (HEK/APPswe cells): without having any effect on cellular viability
